Test results reported in patent US20090275557A1, “Novel Composition for Treatment of Diseases Related to Activated Lymphocytes” (Immune Control, Inc., priority 2008, published 2009).
Values joined by “and” are separate entries in the source; they are usually repeats but may differ in a detail not shown here. Equal values may be shown once. Read-outs that look alike come from different tables or passages of the source. Blank lines part the entries; values can stand above or below the molecule they belong to.

Tests used:
[1] = Pharmacokinetic study, oral gavage in fasted male Sprague-Dawley rats; assay type: in vivo, rat; conditions: for dose absorbed after oral dosing: indirectly indicated by the average bioavailability, oral 10 mg/kg
Method: ICI-1259 and ICI-1260 were supplied as powders and stored frozen until used. Dosing solutions in phosphate buffered saline were prepared at 1 mg/ml. These solutions were then evaluated in fasted male Sprague-Dawley rats. The rats were fitted with a jugular vein cannula for blood sampling. Rats were also fitted with an additional jugular vein cannula, or intradudodenal cannula as needed. Rats were given a commercial rodent diet ad libitum prior to study initiation. Food was then withheld from the animals for a minimum of twelve hours prior to dosing, until four hours postdose when food was returned. Water was supplied ad libitum. Three rats were used in each study, unless otherwise indicated.
For both ICI-1259 and ICI-1260, rats were given a 10 mg/kg dose from a 1 mg/ml solution. The appropriate volume of solution was given as a single bolus dose at time zero on the day of dosing. Blood samples were taken at predose, 5 minutes after dosing, 10 minutes after dosing, 15 minutes after dosing, 30 minutes after dosing, 1 hour after dosing, 2 hours after dosing, 4 hours after dosing, 6 hours after dosing, and 8 hours after dosing.

[2] = system: bovine type 2 collagen immunized rats; experiment: Collagen-induced arthritis assay, IP injection protocol, ankle diameter; assay type: in vivo, rat
Method: Female Lewis rats (CR) weighing between 125-200 g were immunized with bovine type 2 collagen, 2 mg/ml in a 1:1 solution of 0.01 N acetic acid and Freund's incomplete adjuvant (“FIA”). A 0.1 ml portion of the collagen solution was injected id (intradermally) at three sites on the rat. Rats were immunized with the collagen solution on days 1 and 6 of the study. […] On day 9 (study day “0”), baseline ankle diameters were measured. On days 10-15 (study days 1-6), the rats were then treated, via oral gavage, with either 1, 5, or 25 mg/kg of one of ICI-1259 or ICI-1260, prepared as described below. Ankle diameter measurements were measured on each of days 10-16.
Compounds ICI-1259, ICI-1260, ICI-1505, and ICI-1506 were administered via IP injection to treat collagent-induced arthritis in a variation of the experiments described above. Under the protocol of the IP injection experiments, animal were immunized with Bovine Type 2 collagen as previously described. […] On day 9 (study day “0”), baseline ankle diameters were measured. On days 10-12 (study days 1-3), the rats were then treated once per day, via IP injection, with one of ICI-1259, ICI-1260, ICI-1505, or ICI-1506 at 10 mg/kg. Ankle diameter in the immunized rodents was measured on each of days 10-13 as well as on day 14. […] See FIG. 18 (ICI-1259, ICI-1260, and ICI-1505) and FIG. 19 (ICI-1506).
In a separate study, using the IP injection protocol described above, ICI-1259 and 1260 were each dosed at 2 mg/kg and 0.4 mg/kg.

[3] = individual rats, oral gavage 10 mg/kg, 10 mg/kg
[4] = individual rats, oral gavage 10 mg/kg, 0.25 hr, 10 mg/kg
[5] = individual rats, oral gavage 10 mg/kg, 0.50 hr, 10 mg/kg
[6] = individual rats, oral gavage 10 mg/kg, 1.0 hr, 10 mg/kg
[7] = individual rats, oral gavage 10 mg/kg, 2.0 hr, 10 mg/kg
[8] = individual rats, oral gavage 10 mg/kg, 4.0 hr, 10 mg/kg
[9] = individual rats, oral gavage 10 mg/kg, 6.0 hr, 10 mg/kg
[10] = individual rats, oral gavage 10 mg/kg, 8.0 hr, 10 mg/kg
[11] = individual rats, oral gavage 10 mg/kg, dose normalized AUC divided by average intravenous AUC, 10 mg/kg
[12] = male, Sprague-Dawley, rat, plasma, po, 10 mg/kg, individual rats, oral gavage 10 mg/kg
[13] = male, Sprague-Dawley, rat, plasma, po, 10 mg/kg, individual rats, oral gavage 10 mg/kg, 2.0 hr
[14] = male, Sprague-Dawley, rat, plasma, po, 10 mg/kg, individual rats, oral gavage 10 mg/kg, 8.0 hr
[15] = male, Sprague-Dawley, rat, plasma, po, 10 mg/kg, individual rats, oral gavage 10 mg/kg, dose normalized AUC divided by average intravenous AUC, read-out: Bioavailability
[16] = male, Sprague-Dawley, rat, plasma, po, 10 mg/kg, individual rats, oral gavage 10 mg/kg, read-out: Cmax
[17] = male, Sprague-Dawley, rat, plasma, po, 10 mg/kg, individual rats, oral gavage 10 mg/kg, read-out: tmax
[18] = male, Sprague-Dawley, rat, plasma, po, 10 mg/kg, mean (average), oral gavage 10 mg/kg, read-out: Bioavailability
[19] = male, Sprague-Dawley, rat, plasma, po, 10 mg/kg, mean, oral gavage 10 mg/kg
[20] = male, Sprague-Dawley, rat, plasma, po, 10 mg/kg, mean, oral gavage 10 mg/kg, 0.25 hr
[21] = male, Sprague-Dawley, rat, plasma, po, 10 mg/kg, mean, oral gavage 10 mg/kg, 0.50 hr
[22] = male, Sprague-Dawley, rat, plasma, po, 10 mg/kg, mean, oral gavage 10 mg/kg, 1.0 hr
[23] = male, Sprague-Dawley, rat, plasma, po, 10 mg/kg, mean, oral gavage 10 mg/kg, 2.0 hr
[24] = male, Sprague-Dawley, rat, plasma, po, 10 mg/kg, mean, oral gavage 10 mg/kg, 4.0 hr
[25] = male, Sprague-Dawley, rat, plasma, po, 10 mg/kg, mean, oral gavage 10 mg/kg, 6.0 hr
[26] = male, Sprague-Dawley, rat, plasma, po, 10 mg/kg, mean, oral gavage 10 mg/kg, 8.0 hr
[27] = male, Sprague-Dawley, rat, plasma, po, 10 mg/kg, mean, oral gavage 10 mg/kg, read-out: Cmax
[28] = male, Sprague-Dawley, rat, plasma, po, 10 mg/kg, mean, oral gavage 10 mg/kg, read-out: tmax
[29] = IP injection 2 mg/kg, study days 3 and 4
[30] = IP injection 10 mg/kg once per day, study days 1-3, observed on study days 2-4

- dose absorbed after oral dosing [1]: approximately 26%
- AUClast [1, 3]: 84.9 ng·h/mL and 95.9 ng·h/mL
- Cmax [1, 3]: 22.2 ng/mL and 25.9 ng/mL
- Tmax [1, 3]: 1.0 h
- t1/2 [1, 3]: 2.6 h
- Plasma concentration ([1]; individual rats, oral gavage 10 mg/kg, 0.083 hr, BLOQ = below limit of quantitation (1 ng/mL), 10 mg/kg): 1.33 ng/mL and BLOQ
- Plasma concentration [1, 4]: 9.32 ng/mL and 2.68 ng/mL and 7.31 ng/mL
- Plasma concentration [1, 5]: 8.00 ng/mL and 3.02 ng/mL and 6.16 ng/mL
- Plasma concentration [1, 6]: 5.33 ng/mL and 5.38 ng/mL and 25.9 ng/mL
- Plasma concentration [1, 7]: 22.2 ng/mL and 24.0 ng/mL
- Plasma concentration [1, 8]: 4.89 ng/mL and 11.7 ng/mL and 7.39 ng/mL
- Plasma concentration [1, 9]: 19.8 ng/mL and 9.71 ng/mL and 8.98 ng/mL
- Plasma concentration [1, 10]: 2.87 ng/mL and 3.93 ng/mL
- bioavailability [1, 11]: 9.0%
- AUC∞ ([1]; individual rats, oral gavage 10 mg/kg, extrapolated to infinity, 10 mg/kg): 111 ng·h/mL
- AUC(0-t) [1, 12]: 112 ng·h/mL
- half-life [1, 12]: 2.2 h
- concentration at 0.083 hr ([1]; male, Sprague-Dawley, rat, plasma, po, 10 mg/kg, individual rats, oral gavage 10 mg/kg, 0.083 hr, BLOQ = below limit of quantitation (1 ng/mL)): 1.48 ng/mL
- concentration at 2 hr [1, 13]: 33.8 ng/mL
- concentration at 8 hr [1, 14]: 3.13 ng/mL
- bioavailability [1, 15]: 13%
- AUC(0-inf) ([1]; male, Sprague-Dawley, rat, plasma, po, 10 mg/kg, individual rats, oral gavage 10 mg/kg, extrapolated to infinity): 94 ng·h/mL
- Cmax [1, 16]: 33.8 ng/mL
- Tmax [1, 17]: 2 h
- bioavailability [1, 18]: 11%
- AUC(0-t) [1, 19]: 97.7 ng·h/mL
- half-life [1, 19]: 2.4 h
- concentration at 0.083 hr ([1]; male, Sprague-Dawley, rat, plasma, po, 10 mg/kg, mean, oral gavage 10 mg/kg, 0.083 hr): 1.41 ng/mL
- concentration at 0.25 hr [1, 20]: 6.44 ng/mL
- concentration at 0.5 hr [1, 21]: 5.73 ng/mL
- concentration at 1 hr [1, 22]: 12.2 ng/mL
- concentration at 2 hr [1, 23]: 26.7 ng/mL
- concentration at 4 hr [1, 24]: 7.99 ng/mL
- concentration at 6 hr [1, 25]: 12.8 ng/mL
- concentration at 8 hr [1, 26]: 3.31 ng/mL
- AUC(0-inf) ([1]; male, Sprague-Dawley, rat, plasma, po, 10 mg/kg, mean, oral gavage 10 mg/kg, extrapolated to infinity): 102 ng·h/mL
- Cmax [1, 27]: 27.3 ng/mL
- Tmax [1, 28]: 1.7 h
- Dose Normalized AUClast ([1]; mean, oral gavage 10 mg/kg): 9.77 kg·ng·h/mL/mg
- Dose Normalized AUC∞ ([1]; mean, oral gavage 10 mg/kg): 10.2 kg·ng·h/mL/mg
Compound: NCC(=O)NCCCN1CCC(CCCN2c3ccccc3Sc3ccc(C(F)(F)F)cc32)CC1 [ICI-1260, 2-amino-N-(3-(4-(3-(2-(trifluoromethyl)-10H-phenothiazin-10-yl)propyl)piperidin-1-yl)propyl)acetamide]
- Dose Normalized AUClast [1, 3]: 11.2 kg·ng·h/mL/mg and 8.49 kg·ng·h/mL/mg and 9.59 kg·ng·h/mL/mg
- Dose Normalized AUC∞ [1, 3]: 9.40 kg·ng·h/mL/mg and 11.1 kg·ng·h/mL/mg
- reduction in ankle swelling (ankle diameter) ([2]; IP injection 0.4 mg/kg): Statistically significant results were only observed for ICI-1260 at 2 mg/kg
- reduction in ankle swelling (ankle diameter) [2, 29]: Statistically significant results
- reduction in ankle swelling (ankle diameter) [2, 30]: statistically significant results were observed

- dose absorbed after oral dosing [1]: approximately 38%
- AUClast [1, 3]: 98.7 ng·h/mL and 74.2 ng·h/mL
- Cmax [1, 3]: 28.4 ng/mL and 24.3 ng/mL
- Plasma concentration ([1]; individual rats, oral gavage 10 mg/kg, 0.083 hr, BLOQ = below limit of quantitation (1 ng/mL)): BLOQ
- Plasma concentration [1, 4]: 1.10 ng/mL and 3.38 ng/mL and 4.62 ng/mL
- Plasma concentration [1, 5]: 1.56 ng/mL and 3.45 ng/mL and 5.39 ng/mL
- Plasma concentration [1, 6]: 5.21 ng/mL and 17.6 ng/mL and 4.81 ng/mL
- Plasma concentration [1, 7]: 28.4 ng/mL and 24.3 ng/mL
- Plasma concentration [1, 8]: 7.49 ng/mL and 7.34 ng/mL
- Plasma concentration [1, 9]: 10.8 ng/mL and 6.73 ng/mL
- Plasma concentration [1, 10]: 4.35 ng/mL and 3.04 ng/mL
- bioavailability [1, 11]: 17% and 13%
- AUC(0-t) [1, 12]: 65.2 ng·h/mL
- concentration at 2 hr [1, 13]: 16.6 ng/mL
- concentration at 4 hr ([1]; male, Sprague-Dawley, rat, plasma, po, 10 mg/kg, individual rats, oral gavage 10 mg/kg, 4.0 hr): 8.31 ng/mL
- concentration at 6 hr ([1]; male, Sprague-Dawley, rat, plasma, po, 10 mg/kg, individual rats, oral gavage 10 mg/kg, 6.0 hr): 7.85 ng/mL
- concentration at 8 hr [1, 14]: 3.28 ng/mL
- bioavailability [1, 15]: 11%
- Cmax [1, 16]: 16.6 ng/mL
- Tmax [1, 17]: 2 h
- bioavailability [1, 18]: 14%
- AUC(0-t) [1, 19]: 79.4 ng·h/mL
- concentration at 0.25 hr [1, 20]: 3.03 ng/mL
- concentration at 0.5 hr [1, 21]: 3.47 ng/mL
- concentration at 1 hr [1, 22]: 9.21 ng/mL
- concentration at 2 hr [1, 23]: 23.1 ng/mL
- concentration at 4 hr [1, 24]: 7.71 ng/mL
- concentration at 6 hr [1, 25]: 8.46 ng/mL
- concentration at 8 hr [1, 26]: 3.56 ng/mL
- Cmax [1, 27]: 23.1 ng/mL
- Tmax [1, 28]: 2 h
- Dose Normalized AUClast ([1]; mean, oral gavage 10 mg/kg): 7.94 kg·ng·h/mL/mg
Compound: CNCC(=O)NCCCN1CCC(CCCN2c3ccccc3Sc3ccc(C(F)(F)F)cc32)CC1 [ICI-1259, 2-(methylamino)-N-(3-(4-(3-(2-(trifluoromethyl)-10H-phenothiazin-10-yl)propyl)piperidin-1-yl)propyl)acetamide]
- Dose Normalized AUClast [1, 3]: 6.52 kg·ng·h/mL/mg and 9.87 kg·ng·h/mL/mg and 7.42 kg·ng·h/mL/mg
- reduction in ankle swelling (ankle diameter) ([2]; IP injection 0.4 mg/kg): Statistically significant results were only observed for ICI-1260 at 2 mg/kg
- reduction in ankle swelling (ankle diameter) [2, 29]: Statistically significant results were only observed for ICI-1260 at 2 mg/kg
- reduction in ankle swelling (ankle diameter) [2, 30]: statistically significant results were observed
